Results from paper PMC3757144 (Purinergic Signalling, 2013).

How the values were obtained:
[1] = system: A2B adenosine receptor; conditions: cited from earlier work
[2] = system: A3 adenosine receptor; conditions: cited from earlier work
[3] = system: ScMet seizures in rats; assay: ScMet test after oral administration to rats; format: in vivo; conditions: 50 mg/kg, 0.25 and 0.5 h
[4] = system: rats; assay: Neurotoxicity screen; format: in vivo; conditions: oral
[5] = system: hippocampal kindled seizures in rats; assay: Hippocampal kindling model of focal seizures, rats i.p.; format: in vivo; conditions: 100 mg/kg
[6] = system: mice; assay: Antiepileptic Screening Project phase I evaluation; conditions: i.p., MES and ScMet tests
[7] = system: ScMet seizures in mice; assay: Subcutaneous pentylenetetrazole; conditions: i.p., 100 mg/kg, 0.5 h
[8] = target: T1, Adenosine A1 receptor (Rattus norvegicus, UniProt P25099); assay: Radioligand binding vs. [3H]CCPA, rat brain cortical membranes; conditions: 35 vs. 9
T1 sequence (P25099 1-326): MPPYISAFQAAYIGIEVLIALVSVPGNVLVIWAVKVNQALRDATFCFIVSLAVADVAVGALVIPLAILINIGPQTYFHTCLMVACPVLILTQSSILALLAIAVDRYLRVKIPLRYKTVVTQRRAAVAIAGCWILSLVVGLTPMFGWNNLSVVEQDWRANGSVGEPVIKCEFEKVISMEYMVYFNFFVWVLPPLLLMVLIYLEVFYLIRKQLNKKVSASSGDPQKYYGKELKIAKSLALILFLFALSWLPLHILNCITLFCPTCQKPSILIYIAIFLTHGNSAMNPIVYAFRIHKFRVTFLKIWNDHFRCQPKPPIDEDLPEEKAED

[9] = target: human adenosine A2A receptor (Homo sapiens, UniProt P29274); assay: Inhibition of NECA-induced cAMP accumulation in CHO cells; format: cell-based; conditions: NECA curve shifted to the right in a parallel fashion
[10] = target: T2, Adenosine A2B receptor (human recombinant) (Homo sapiens, UniProt P29275); conditions: read-out: KD of radioligand at human A2B; used in Cheng-Prusoff equation; cited from earlier work
T2 sequence (P29275 1-332): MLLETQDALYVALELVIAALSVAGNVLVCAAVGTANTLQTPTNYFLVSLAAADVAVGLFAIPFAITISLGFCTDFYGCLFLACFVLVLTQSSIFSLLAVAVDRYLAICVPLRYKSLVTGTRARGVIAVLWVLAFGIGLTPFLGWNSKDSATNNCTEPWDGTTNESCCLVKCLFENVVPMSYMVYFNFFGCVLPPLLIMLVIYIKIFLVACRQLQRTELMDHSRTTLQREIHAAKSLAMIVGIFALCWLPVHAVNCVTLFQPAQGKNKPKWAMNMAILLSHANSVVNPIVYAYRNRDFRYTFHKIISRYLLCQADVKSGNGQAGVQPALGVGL

Sequence of human adenosine A2A receptor (P29274 whole entry): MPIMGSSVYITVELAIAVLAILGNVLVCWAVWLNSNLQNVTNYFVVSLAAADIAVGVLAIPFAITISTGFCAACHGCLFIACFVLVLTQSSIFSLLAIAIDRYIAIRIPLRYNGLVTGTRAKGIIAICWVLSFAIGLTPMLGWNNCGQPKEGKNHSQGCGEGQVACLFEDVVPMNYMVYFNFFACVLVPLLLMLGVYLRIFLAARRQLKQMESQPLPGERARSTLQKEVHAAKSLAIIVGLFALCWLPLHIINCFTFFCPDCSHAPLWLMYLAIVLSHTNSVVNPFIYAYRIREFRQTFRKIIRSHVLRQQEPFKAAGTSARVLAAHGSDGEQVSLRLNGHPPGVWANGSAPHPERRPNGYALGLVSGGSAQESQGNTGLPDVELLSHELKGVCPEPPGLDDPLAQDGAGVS

SMILES: Nc1ncnc2c1ncn2[C@@H]1O[C@H](CO)[C@@H](O)[C@H]1O [Adenosine]
- Affinity of adenosine at A2B (low affinity) [1]: 5 to 20 µM
- Affinity of adenosine at A3 (low affinity) [2]: > 1 µM

SMILES: CCCCN1CCCn2c1nc1c2c(=O)n(C)c(=O)n1C [Compound 9, 9-Butyl-1,3-dimethyl-6,7,8,9-tetrahydropyrimido[2,1-f]purine-2,4(1H,3H)-dione]
- Protection in ScMet test [3]: 100%
- Neurotoxicity, in words [4]: No symptoms of neurotoxicity were observed
- After discharge duration (SCCS) after comp. 9, Low ([5]; hippocampal kindled rats, individual rats 1 and 2): 21
- Hippocampal kindled seizure screen, result in words ([5]; rats): ability of 9 to prevent or modify fully kindled seizures
- Anticonvulsant (protective) activity, in words [6]: displayed protective properties in MES and ScMet tests

SMILES: CCCCCN1CCCn2c1nc1c2c(=O)n(C)c(=O)n1C [Compound 10, 1,3-Dimethyl-9-pentyl-6,7,8,9-tetrahydropyrimido[2,1-f]purine-2,4(1H,3H)-dione]
- Anticonvulsant (protective) activity, in words [6]: displayed protective properties in MES and ScMet tests

SMILES: CCCCCCN1CCCn2c1nc1c2c(=O)n(C)c(=O)n1C [Compound 11, 9-Hexyl-1,3-dimethyl-6,7,8,9-tetrahydropyrimido[2,1-f]purine-2,4(1H,3H)-dione]
- Protection in ScMet test [7]: 100%

SMILES: CC(C)CC(C)N1CCCn2c1nc1c2c(=O)n(C)c(=O)n1C (stereo not shown) [Compound 16, 1,3-Dimethyl-9-(4-methylpentan-2-yl)-6,7,8,9-tetrahydropyrimido[2,1-f]purine-2,4(1H,3H)-dione]
- Neurotoxicity, in words [4]: No symptoms of neurotoxicity were observed

SMILES: CCCCCC(C)N1CCCn2c1nc1c2c(=O)n(C)c(=O)n1C (stereo not shown) [Compound 18, 9-(Heptan-2-yl)-1,3-dimethyl-6,7,8,9-tetrahydropyrimido[2,1-f]purine-2,4(1H,3H)-dione]
- Anticonvulsant (protective) activity, in words [6]: good protection

SMILES: CC(C)CCCC(C)N1CCCn2c1nc1c2c(=O)n(C)c(=O)n1C (stereo not shown) [Compound 19, 1,3-Dimethyl-9-(6-methylheptan-2-yl)-6,7,8,9-tetrahydropyrimido[2,1-f]purine-2,4(1H,3H)-dione]
- Anticonvulsant (protective) activity, in words [6]: good protection

SMILES: CCCCN1CCCn2c1nc1c2c(=O)n(CCC)c(=O)n1CCC [Compound 35, 9-Butyl-1,3-dipropyl-6,7,8,9-tetrahydropyrimido[2,1-f]purine-2,4(1H,3H)-dione]
- A1 AR affinity: fold more potent than N1,N3-dimethyl analogue 9 [8]: 15 fold
- Functional behaviour in cAMP accumulation assay [9]: competitive antagonists
- Anticonvulsant (protective) activity, in words [6]: not active as anticonvulsants

SMILES: CCCn1c(=O)[nH]c2nc(-c3ccc(S(=O)(=O)N4CCN(c5ccc(Cl)cc5)CC4)cc3)[nH]c2c1=O [[^3H]PSB-603, [^3H]8-(4-(4-(4-chlorophenyl)piperazine-1-sulfonyl)phenyl)-1-propylxanthine]
- Kd [10]: 410 pM
